Values quoted from earlier work as cited in US20260355228A1, “TREATMENT OF FAMILIAL ADENOMATOUS POLYOPSIS USING A 13-MEMBERED MACROLIDE” (ZIKANI THERAPEUTICS, INC., priority 2022, published 2026).

Assays:
[1] = tested on: mouse model of FAP; conditions: mouse model of FAP [23, 24]
[2] = tested on: FAP patients harboring APC nonsense mutations; conditions: clinical study, FAP patients [25]
[3] = tested on: APC gene nonsense mutations in colorectal cancer cell lines; conditions: colorectal cancer cell lines [23, 24]
[4] = tested on: human colorectal xenografts possessing APC nonsense mutations; conditions: xenografts possessing APC nonsense mutations [23, 24]
[5] = tested on: APC L360X stop codon; conditions: luciferase based reporter vector [40]
[6] = tested on: APC (SW1417 colon carcinoma cells); conditions: SW1417 cells [23]
[7] = tested on: APC gene nonsense mutations in in vivo colon carcinoma models; conditions: in vivo colon carcinoma models [23]

Compound | number of intestinal polyps [1] | adenoma burden [2] | suppression of nonsense mutations / translation termination in the APC gene [3] | in vivo growth of human colorectal xenografts [4] | susceptibility of the L360X stop codon to read-through [5] | read-through of the nonsense mutation leading to synthesis of full-length, active APC protein [6] | suppression of translation termination generated by nonsense mutations in the APC gene [7]
CC[C@H]1OC(=O)[C@H](C)[C@@H](O[C@H]2C[C@@](C)(OC)[C@@H](O)[C@H](C)O2)[C@H](C)[C@@H](O[C@@H]2O[C@H](C)C[C@H](N(C)C)[C@H]2O)[C@](C)(O)C[C@@H](C)C(=O)[C@H](C)[C@@H](O)[C@]1(C)O [erythromycin] | reduced the number of intestinal polyps | decrease in adenoma burden | suppressed nonsense mutations in the APC gene in human colon carcinoma cells | inhibited the in vivo growth of human colorectal xenografts | – | – | –
gentamicin | reduced the number of intestinal polyps | – | suppressed nonsense mutations in the APC gene in human colon carcinoma cells | inhibited the in vivo growth of human colorectal xenografts | most susceptible | – | –
CC[C@H]1OC(=O)C[C@@H](O)[C@H](C)[C@@H](O[C@@H]2O[C@H](C)[C@@H](O[C@H]3C[C@@](C)(O)[C@@H](O)[C@H](C)O3)[C@H](N(C)C)[C@H]2O)[C@@H](CC=O)C[C@@H](C)C(=O)/C=C/C(C)=C/[C@@H]1CO[C@@H]1O[C@H](C)[C@@H](O)[C@@H](OC)[C@H]1OC [tylosin] | – | – | can suppress translation termination generated by nonsense mutations in the APC gene | – | – | low level of full-length, active APC protein | can suppress translation termination generated by nonsense mutations in the APC gene
